Laboratory results from patent publication EP0029617A1, “Use of tertiary heterocyclic amines as synergists in pesticides; derivatives of cycloamines” (priority 1979, dated 1981).
Like-named read-outs stand apart in the source and are kept apart here.

System: Kornkäfer (sitophilus granarius L)
Experiment: whole plant or invertebrate
Format: in vivo
Conditions: for mortality at 1000 µg/mL: Sitophilus granarius, read-out: Wirksamkeit in % Substanz allein
Method: Test von tertiären, heterocyclischen Aminen allein und im Gemisch mit Pyrethroiden an Kornkäfern (sitophilus granarius L)
In Petrischalen mit 15 cm Durchmesser mit talcumbepuderten Seitenwänden, um das Entfliehen der Kornkäfer zu verhindern, wurden jeweils 2 ml der Acetonlösungen einpipettiert und durch vorsichtiges Schwenken der Schalen gleichmäßig auf dem Boden verteilt. Nach dem Abdampfen des Acetons und dem Antrocknen der Beläge wurden in jede Schale 25 Kornkäfer eingezählt. Nach einer Stunde wurde jeweils ein 12,5 cm Rundfilter in die Schalen eingelegt, um den Käfern das Befreien aus der Rückenlage zu ermöglichen, was auf der glatten Glasplatte nicht möglich ist. Die lichtscheuen Käfer verkrochen sich mit Vorliebe unter die Filter und blieben so ständig mit den Wirkstoffbelägen in Kontakt. Alle Versuche liefen mit 3 Wiederholungen. Nach 3 h wurden die toten Käfer ausgezählt.
In der Tabelle 3 ist jeweils der Durchschnitt der Summe der 4 Einzelwerte angegeben. 25 tote Kornkäfer entsprechen dabei einer Wirkung von 100 %. Die Temperaturen betrugen während der Tests im Durchschnitt 19 - 21°C. Der synergistische Faktor berechnet sich analog wie in Beispiel 1 angegeben.
Die zu prüfenden tertiären, heterocyclischen Amine wurden - mit 1 mg Wirkstoff pro ml als Acetonlösungen angesetzt. Sie wurden im Verhältnis 1 : 1 mit Ripcord bzw. Talcord, die mit 0,01 mg Wirkstoff pro ml als Acetonlösung vorlagen, gemischt. Die Einzelkomponenten wurden im Verhältnis 1 : 1 mit Aceton gemischt.
Auch bei diesen Versuchen zeigten die Kontrollversuche stets bei Versuchsende eine Mortalität der Kornkäfer von 0 %.
Die synergistische Wirkung der tertiären, heterocyclischen Amine auf die Pyrethroide ist auch dann noch deutlich, wenn das Amin in wesentlich niederen Aufwandmengen eingesetzt wird, als dies in Beispiel 3 beschrieben wurde. Die Ergebnisse sind in der Tabelle 4 zusammengestellt. Dieser Versuch zeigt auch, daß Amine mit insektiziden Eigenschaften, wenn sie in Konzentrationen unterhalb ihres insektiziden Wirkungsbereiches eingesetzt werden, immer noch gute synergistische Wirkungen im Gemisch mit Pyrethroiden zeigen. Die Versuche wurden wie im Beispiel 3 beschrieben mit Kornkäfern durchgeführt. Es wurden lediglich die Konzentrationen der eingesetzten tertiären, heterocyclischen Amine geändert. Für die Verdünnung Pyrethroid : Amin = 1 : 10 wurde das Amin mit 0,1 mg Wirkstoff/ml Acetonlösung eingesetzt. Für die Verdünnung 1 : 5 mit 0,05 mg Wirkstoff/ml.

[1] = amine 1 mg/ml + Ripcord 0,01 mg/ml
[2] = amine 1 mg/ml + Talcord 0,01 mg/ml
[3] = amine 1 mg/ml in Aceton mixed 1 : 1 with Aceton, 2 ml per dish, 25 weevils, dead counted after 3 h
[4] = amine 1 mg/ml mixed 1 : 1 with Ripcord 0,01 mg/ml, 3 h
[5] = amine 1 mg/ml mixed 1 : 1 with Talcord 0,01 mg/ml, 3 h
[6] = sitophilus granarius, in vivo, 3 h

| Compound | Synergistischer Faktor bei Ripcord [1] | Synergistischer Faktor bei Talcord [2] | Wirksamkeit in % Substanz allein [3] | Wirksamkeit in % Substanz +Ripcord [4] | Wirksamkeit in % Substanz +Talcord [5] | Synergistischer Faktor bei Ripcord (in vivo) | Synergistischer Faktor bei Talcord (in vivo) | Wirksamkeit in % Substanz +Ripcord [6] | Wirksamkeit in % Substanz +Talcord [6] | Wirksamkeit in % Substanz allein [6] [%] | mortality at 1000 µg/mL [3] [%] | mortality at 1000 µg/mL (3 h) [%] |
| --- | --- | --- | --- | --- | --- | --- | --- | --- | --- | --- | --- | --- |
| 1-N-p-Menthen-piperidin | 1,90 | 7,42 | 0% | 60,0% | 72,0% |  |  |  |  |  |  |  |
| C1CCN(CCOCCOCCN2CCCC2)C1 [1,2-Bis-(2-N-pyrrolidino-ethoxi)-ethan] | 3,17 | 7,13 | 0% | 100,0% | 69,2% |  |  |  |  |  |  |  |
| C(CCCN1CCCCC1)CCN1CCCCC1 [1,6-N,N-Di-piperidino-hexan] | 2,82 |  | 0% | 57,2% | 2,8% |  |  |  |  |  |  |  |
| C(CCCN1CCCC1)CCN1CCCC1 [1,6-N,N-Di-pyrrolidino-hexan] | 2,52 | 4,24 | 0% | 77,2% | 41,2% |  |  |  |  |  |  |  |
| C(CCCCN1CCCCC1)CCCN1CCCCC1 [1,8-N,N-Di-piperidino-octan] |  |  | 61,2% | 90,8% | 65,2% |  |  |  |  |  |  |  |
| C(CCCCN1CCCC1)CCCN1CCCC1 [1,8-N,N-Di-pyrrolidino-octan] | 2,79 | 6,60 | 0% | 88,0% | 64,0% |  |  |  |  |  |  |  |
| C(CCCCCN1CCCCC1)CCCCN1CCCCC1 [1,10-N,N-Di-piperidino-decan] | 2,41 | 6,06 | 0% | 76,0% | 58,8% |  |  |  |  |  |  |  |
| C(CCCCCN1CCCC1)CCCCN1CCCC1 [1,10-N,N-Di-pyrrolidino-decan] | 2,54 | 3,00 | 0% | 80,0% | 29,2% |  |  |  |  |  |  |  |
| OC(CCl)CN1CCCCC1 (stereo not shown) [1-N-Piperidino-2-hydroxi-3-chlor-propan] | 1,74 | 5,65 | 0% | 54,8% | 54,8% |  |  |  |  |  |  |  |
| OCCC(O)N1CCCC1 (stereo not shown) [1-N-Pyrrolidino-propandiol-(1,3)] | 3,17 | 8,12 | 0% | 100,0% | 78,8% |  |  |  |  |  |  |  |
| Oc1cc(CN2CCCCC2)c(O)cc1CN1CCCCC1 [2,5-Bis-(N-piperidino-methyl)-hydrochinon] | 1,78 | 2,47 | 0% | 56,0% | 24,0% |  |  |  |  |  |  |  |
| CCOC(=O)C(CC)N1CCOCC1 (stereo not shown) [2-N-Morpholino-buttersäure-ethylester] | 1,56 | 3,30 | 0% | 49,2% | 32,0% |  |  |  |  |  |  |  |
| CCOC(=O)C(CC)N1CCCCC1 (stereo not shown) [2-N-Piperidino-buttersäure-ethylester] | 1,94 | 5,36 | 0% | 61,2% | 52,0% |  |  |  |  |  |  |  |
| CCCCOC(CN1CCCCC1)OCCCC [2-N-Piperidino-ethyl-dibutyl-acetal] |  |  | 0% | 86,8% | 36,0% | 2,76 | 3,71 |  |  |  |  |  |
| O=C1CCCCC1CN1CCCCC1 (stereo not shown) [2-N-Piperidino-methyl-cyclo-hexanon] | 1,65 | 1,65 | 18,8% | 70,8% | 34,8% |  |  |  |  |  |  |  |
| c1ccc2cc(CN3CCCCC3)ccc2c1 [2-N-Piperidino-methyl-naphthalin] | 3,05 | 9,07 | 0% | 96,0% | 88,0% |  |  |  |  |  |  |  |
| OCCN1CCCC1 [2-N-Pyrrolidino-ethanol] | 2,58 | 5,48 | 0% | 81,2% | 53,2% |  |  |  |  |  |  |  |
| COc1cc(C=O)cc(CN2CCCCC2)c1O [3-N-(Piperidino-methyl)-4-hydroxid-5-methoxi-benz-aldehyd] | 2,79 | 4,12 | 0% | 88,0% | 40,0% |  |  |  |  |  |  |  |
| C=CC(C)(CCC=C(C)CCC=C(C)C)N1CCCC1 (stereo not shown) [3-N-pyrrolidino-3,7,11-tri-methyl-1,6,10-dodecatrien] | 3,00 | 3,59 | 0% | 94,8% | 34,8% |  |  |  |  |  |  |  |
| C#CCN1CCCC1 [3-N-pyrrolidino-propin] | 1,61 | 1,52 | 0% | 50,8% | 14,8% |  |  |  |  |  |  |  |
| C=CC(C)(CCC=C(C)C)N1CCCCCC1 (stereo not shown) [6-N-Hexamethylenimino-2,6-dimethyl-octadien-(2,7)] | 2,41 | 7,30 | 0% | 76,0% | 70,8% |  |  |  |  |  |  |  |
| c1ccc(C(N2CCCCC2)N2CCCCC2)cc1 [Benzal-di-N,N-piperidin] |  |  | 0% | 40,0% | 18,8% | 1,26 | 1,94 |  |  |  |  |  |
| c1ccc(OCCN2CCCC2)cc1 [N-1-2-phenoxiethyl-pyrrolidin] | 1,69 | 2,88 | 0% | 53,2% | 28,0% |  |  |  |  |  |  |  |
| CCOCCN1CCCC1 [N-1-(1'-Ethoxiethyl-(2))-pyrrolidin] | 2,22 |  | 0% | 70,0% | 0% |  |  |  |  |  |  |  |
| CCCCOCCOCCN1CCCC1 [N-1-(2'-Butoxi-diethyl-ether-(2))-pyrrolidin] |  |  |  |  |  | 2,47 |  | 78,0% | 8,9% | 0 |  |  |
| CCCCC(CC)CN1CCCC1 (stereo not shown) [N-1-(2-Ethyl)-hexyl-pyrrolidin] | 1,78 | 4,24 | 0% | 56,0% | 41,2% |  |  |  |  |  |  |  |
| C=CCN1CCCCC1 [N-1-Allyl-piperidin] | 2,32 | 1,36 | 0% | 73,2% | 13,2% |  |  |  |  |  |  |  |
| CCCCCCCCCCN1CCOCC1 [N-1-Decyl-morpholin] | 2,32 | 8,37 |  | 73,1% | 81,2% |  |  |  |  |  | 0 |  |
| CCCCCCCCCCCCN1CCCCC1C (stereo not shown) [N-1-Dodecyl-2-methyl-piperidin] | 1,49 | 2,06 |  | 46,8% | 20,0% |  |  |  |  |  | 0 |  |
| CCCCCCCCCCCCN1CC1 [N-1-Dodecyl-ethylenimin] | 2,86 | 3,71 |  | 90,0% | 36,0% |  |  |  |  |  |  | 0 |
